Reference: patent publication US12441730B2, “PRMT5 inhibitors” (Merck Sharp & Dohme LLC, priority 2019, dated 2025)
Where two headings read alike, the source gives them in different places.

How the values were obtained:
[1] = target: T1, Full-length (FL)-PRMT5-MEP50 enzyme complex (Homo sapiens, UniProt O14744); test: PRMT5-MEP50 Enzyme Methylation Assay (Version A); assay type: biochemical
T1 construct: Full-length (FL)-PRMT5-MEP50 enzyme complex (recombinant proteins from baculovirus-transfected Sf21 cells: FL-PRMT5; MW=73837 kDa and FL-MEP50; MW=38614); made in house; host or cells: baculovirus-transfected Sf21 cells
T1 sequence (O14744 whole entry): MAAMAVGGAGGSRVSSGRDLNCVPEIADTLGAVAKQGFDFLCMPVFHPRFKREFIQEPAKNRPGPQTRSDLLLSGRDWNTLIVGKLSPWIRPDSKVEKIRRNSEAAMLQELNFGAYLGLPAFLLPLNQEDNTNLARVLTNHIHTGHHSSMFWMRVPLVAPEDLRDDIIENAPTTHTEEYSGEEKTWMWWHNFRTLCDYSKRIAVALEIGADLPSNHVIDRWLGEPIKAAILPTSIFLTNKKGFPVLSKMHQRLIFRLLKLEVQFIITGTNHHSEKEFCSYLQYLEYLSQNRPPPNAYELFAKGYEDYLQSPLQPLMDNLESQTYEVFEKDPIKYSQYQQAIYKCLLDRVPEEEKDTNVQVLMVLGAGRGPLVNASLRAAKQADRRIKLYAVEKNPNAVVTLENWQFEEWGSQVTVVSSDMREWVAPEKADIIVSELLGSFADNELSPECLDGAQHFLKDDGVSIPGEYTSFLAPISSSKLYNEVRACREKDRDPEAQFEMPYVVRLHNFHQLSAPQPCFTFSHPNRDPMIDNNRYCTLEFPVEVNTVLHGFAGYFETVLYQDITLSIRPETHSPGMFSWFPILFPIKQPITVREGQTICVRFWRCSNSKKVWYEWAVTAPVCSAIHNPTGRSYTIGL
T1 sequence (Q9BQA1 whole entry partner): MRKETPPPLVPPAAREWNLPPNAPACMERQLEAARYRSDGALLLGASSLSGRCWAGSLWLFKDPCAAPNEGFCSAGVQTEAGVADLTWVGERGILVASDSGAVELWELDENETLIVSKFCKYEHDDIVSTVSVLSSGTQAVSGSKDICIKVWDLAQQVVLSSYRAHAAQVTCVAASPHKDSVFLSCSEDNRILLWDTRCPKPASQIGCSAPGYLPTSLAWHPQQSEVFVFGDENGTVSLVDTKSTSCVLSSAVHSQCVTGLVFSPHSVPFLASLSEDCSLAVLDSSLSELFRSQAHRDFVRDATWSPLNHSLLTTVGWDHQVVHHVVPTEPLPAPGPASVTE
Method: PRMT5-MEP50 Enzyme Methylation Assay (Version A)
PRMT5-MEP50 biochemical assay is a direct measurement of the methylation activity of the enzyme complex on a short peptide substrate derived from the N-terminus of H4 histone. Methylation experiment was performed with recombinant PRMT5-MEP50 protein complex. The assessment of inhibitory effect of small molecules was measured by the effectiveness of the compounds to inhibit this reaction (EC50).
In this assay, the potency (EC50) of each compound was determined from a twenty-point (1:2 serial dilution; top compound concentration of 100000 nM) titration curve using the following outlined procedure. To each well of a white ProxiPlus 384 well-plate, 100 nL of compound (1% DMSO in final assay volume of 10 μL) was dispensed, followed by the addition of 8 μL of 1× assay buffer (50 mM Bicine pH 8.0, 1 mM DTT, 0.004% Tween20, 0.01% BSA) containing 1.25 nM of Full-length (FL)-PRMT5-MEP50 enzyme complex (recombinant proteins from baculovirus-transfected Sf21 cells: FL-PRMT5; MW=[…] and FL-MEP50; MW=38614) and 1 μL of 150 μM S-(5′-Adenosyl)-L-Methionine Chloride (SAM). A plate were sealed and placed in a 37° C. humidified chamber for a 60 minutes pre-incubation with compound. Subsequently, each reaction was initiated by the addition of 1 μL 1× assay buffer containing 750 nM biotinylated H4R3(Me1) peptide. The final reaction in each well of 10 μL consists of 1.0 nM PRMT5-MEP50, 75 nM biotinylated-peptide, and 15 μM SAM. Methylation reactions were allowed to proceed for 150 minutes in a sealed plate at 37° C. Reactions were immediately quenched by the addition of 1 μL of 5% formic acid. A plate was then frozen and shipped to SAMDI™ Tech Inc. to determine the percent conversion from H4R3(Me1) to H4R3(Me2). Dose-response curves were generated by plotting percent effect (% product conversion; Y-axis) vs. Log 10 compound concentrations (X-axis). EC50 values were determined by non-linear regression according to models for either sigmoidal (4 parameters) or biphasic (7 parameters) dose-response curves.

[2] = test system: symmetric dimethylation of arginine (SDMA) of PRMT5 substrates in MCF-7 cells; test: PRMT5 Cell Target Engagement (TE) Assay; assay type: cell-based; settings: 3 days treatment, SDMA high content imaging
Source text: PRMT5 Cell Target Engagement (TE) Assay
The PRMT5 TE assay is a biomarker assay for identifying compounds that inhibit symmetric dimethylation of arginine (SDMA) of PRMT5 substrates. The following substrates have been reported for PRMT5: histone H2A and H4 R3, Histone H3 R2, Histone H3 R8, spliceosome Sm proteins, ribosomal protein RPS10, p53, FEN1, nucleoplasmin, nucleolin, EGFR and EBNA. The assay focuses on detecting symmetrically dimethylated nuclear proteins using high content imaging technology. Detection of the expression of symmetrically dimethylated nuclear proteins is through a mixture of primary rabbit monoclonal antibodies to SDMA (CST 13222), which in turn recognized by an Alexafluor 488 dye-conjugated anti-rabbit IgG secondary antibody. The IN Cell Analyzer 2200 or Opera-Phenix measures nuclear Alexafluor 488 fluorescent dye intensity that is directly related to the level of expression of symmetrically dimethylated nuclear proteins at the single cell level. Nuclear AF488 dye intensities are compared to the mean value for DMSO treated cells (MIN) to report percent of inhibition for each compound-treated well.
In this assay, the cell potency (EC50) of each compound was determined from a ten point (1:3 serial dilution; top compound concentration of 10000 nM) titration curve using the following outlined procedure. Each well of a BD falcon collagen coated black/clear bottom 384-well plate was seeded with 4000 MCF-7 cells in 30 μl media and allowed to attach for 5 h. Media is ATCC-formulated Eagle's Minimum Essential Medium, Catalog No. 30-2003. To make the complete growth medium, the following components were added to the base medium: 0.01 mg/mL human recombinant insulin; fetal bovine serum to a final concentration of 10%. Additional 30 μl of media containing 2× compounds were added to each well. Cells were treated for 3 days in 37° C. CO2 incubator. On day 3, cells were fixed with Cytofix, permeabilized with 0.4% Triton-X-100/Cytofix, and washed with D-PBS without Ca/Mg. Cells were blocked with Licor Odessey blocking reagent for 1 h at room temperature, followed by incubation with anti-SDMA (1:1000) antibody at 4° C. overnight. 1° antibody was removed, followed by three washings with DPBS without Ca/Mg and 0.05% Tween20. Hoechst (5 μg/mL), Cell Mask deep stain (1:2000) and Alexa488-conjugated goat anti-rabbit IgG (2 μg/mL) was added for 1 h at room temperature. A final washing step (three washes) was performed before sealing plate for imaging on In Cell Analyzer 2200 or Opera-Phenix. Images from analyzer were uploaded to Columbus (at WP or BOS) for image analysis. IC50 values were determined by 4 parameters robust fit of percent fluorescence units vs. (Log10) compound concentrations.

[3] = second value of 7 parameter biphasic fit, read-out: Enzyme Methylation Assay Version A (EC50 2)
[4] = single EC50 = 4 parameter single site sigmoidal fit, EC50 1 = first value of 7 parameter biphasic fit, read-out: Enzyme Methylation Assay Version A (EC50 or EC50 1)

Compound | EC50 [1, 3] | EC50 [1, 4] | EC50 [2] | EC50 ([2]; Homo sapiens, MCF7, 72 h)
O=C(c1cn2c(n1)C(C1CCOC1)CC(C(F)(F)F)C2)N1CC[C@]2(Cc3ccccc3CN2)[C@H](O)C1 (single isomer, unassigned) [Example 160, ((3R,3′R)-3′-hydroxy-1,4-dihydro-2H-spiro[isoquinoline-3,4′-piperidin]-1′-yl)((6S,8S or 6R,8R)-8-((S or R)-tetrahydrofuran-3-yl)-6-(trifluoromethyl)-5,6,7,8-tetrahydroimidazo[1,2-a]pyridin-2-yl)methanone] | 9480 nM | 9.52 nM | 289 nM | –
CC(C)(O)c1cc(Br)cn2cc(C(=O)N3CC[C@]4(Cc5ccccc5CN4)[C@H](O)C3)nc12 [Example 47, (6-bromo-8-(2-hydroxypropan-2-yl)imidazo[1,2-a]pyridin-2-yl)((3R,3’R)-3′-hydroxy-1,4-dihydro-2H-spiro[isoquinoline-3,4′-piperidin]-1′-yl)methanone] | 403 nM | 0.421 nM | – | 9.81 nM
O=C(c1ccc2c(c1)NCCN(CC(F)(F)F)C2=O)N1CC[C@]2(Cc3ccccc3CN2)[C@H](O)C1 [Example 170, 8-{[(3R,3′R)-3′-hydroxy-1,4-dihydro-1′H,2H-spiro[isoquinoline-3,4′-piperidin]-1′-yl]carbonyl}-4-(2,2,2-trifluoroethyl)-1,2,3,4-tetrahydro-5H-1,4-benzodiazepin-5-one] | 1780 nM | 2.56 nM | – | 19 nM
O=C(c1cn2cc(Br)c(C3CC3)nc2n1)N1CC[C@]2(Cc3ccccc3CN2)[C@H](O)C1 [Example 135, (6-bromo-7-cyclopropylimidazo[1,2-a]pyrimidin-2-yl)[(3R,3′R)-3′-hydroxy-1,4-dihydro-1′H,2H-spiro[isoquinoline-3,4′-piperidin]-1′-yl]methanone] | – | 10.6 nM | – | 6.86 nM
COCc1cc(Cl)cn2cc(C(=O)N3CC[C@]4(Cc5ccccc5CN4)[C@H](O)C3)nc12 [Example 112, (6-chloro-8-(methoxymethyl)imidazo[1,2-a]pyridin-2-yl)((3R,3′R)-3′-hydroxy-1,4-dihydro-2H-spiro[isoquinoline-3,4′-piperidin]-1′-yl)methanone] | 271 nM | 0.703 nM | – | 6.75 nM
Cc1ccc(C(=O)N2CC[C@]3(Cc4ccccc4CN3)[C@H](O)C2)c(C2CC2)n1 [Example 199, (2-cyclopropyl-6-methyl-3-pyridinyl)[(3R,3′R)-3′-hydroxy-1,4-dihydro-1′H,2H-spiro[isoquinoline-3,4′-piperidin]-1′-yl]methanone] | 7240 nM | 4.08 nM | – | 503 nM
O=C(c1cn2ccc(Cl)c(I)c2n1)N1CC[C@]2(Cc3ccccc3CN2)[C@H](O)C1 [Example 216, (7-chloro-8-iodoimidazo[1,2-a]pyridin-2-yl)[(3R,3′R)-3′-hydroxy-1,4-dihydro-1′H,2H-spiro[isoquinoline-3,4′-piperidin]-1′-yl]methanone] | 2540 nM | 26.3 nM | – | 711 nM
COC(C)c1cc(Br)cn2cc(C(=O)N3CC[C@]4(Cc5cc(Cl)ccc5CN4)[C@H](O)C3)nc12 (single isomer, unassigned) [Example 225] | 398 nM | 2.1 nM | – | 22.6 nM
O=C(c1cn2cc(C(F)F)ccc2n1)N1CC[C@]2(Cc3ccccc3CN2)[C@H](O)C1 [Example 41, (6-(difluoromethyl)imidazo[1,2-a]pyridin-2-yl)((3R,3’R)-3′-hydroxy-1,4-dihydro-2H-spiro[isoquinoline-3,4′-piperidin]-1′-yl)methanone] | 209 nM | 0.513 nM | – | 2.44 nM
CC(C#N)c1cnc2nc(C(=O)N3CC[C@]4(Cc5ccccc5CN4)[C@H](O)C3)cn2c1 (stereo partly drawn) [Example 133, 2-(2-{[(3R,3′R)-3′-hydroxy-1,4-dihydro-1′H,2H-spiro[isoquinoline-3,4′-piperidin]-1′-yl]carbonyl}imidazo[1,2-a]pyrimidin-6-yl)propanenitrile] | 16.2 nM | 3.79 nM | – | 77.4 nM
O=C(c1nn2cc(Br)cnc2c1Cl)N1CC[C@]2(Cc3ccccc3CN2)[C@H](O)C1 [Example 58, (6-bromo-3-chloropyrazolo[1,5-a]pyrimidin-2-yl)[(3R,3′R)-3′-hydroxy-1,4-dihydro-1′H,2H-spiro[isoquinoline-3,4′-piperidin]-1′-yl]methanone] | 313 nM | 0.715 nM | – | 10.1 nM
O=C(c1cc2ncc(C3CC3)cn2n1)N1CC[C@]2(Cc3ccccc3CN2)[C@H](O)C1 [Example 70, (6-cyclopropylpyrazolo[1,5-a]pyrimidin-2-yl)[(3R,3′R)-3′-hydroxy-1,4-dihydro-1′H,2H-spiro[isoquinoline-3,4′-piperidin]-1′-yl]methanone] | 240 nM | 0.27 nM | – | 263 nM
CO[C@H](C)c1cc(N2Cc3ncsc3C2)cn2cc(C(=O)N3CC[C@]4(Cc5ccccc5CN4)[C@H](O)C3)nc12 [Example 235, {6-(4,6-dihydro-5H-pyrrolo[3,4-d][1,3]thiazol-5-yl)-8-[(1R)-1-methoxyethyl]imidazo[1,2-a]pyridin-2-yl}[(3R,3′R)-3′-hydroxy-1,4-dihydro-1′H,2H-spiro[isoquinoline-3,4′-piperidin]-1′-yl]methanone] | – | 20.6 nM | – | 62.7 nM
O=C(c1cnc2ncnn2c1)N1CC[C@]2(Cc3ccccc3CN2)[C@H](O)C1 [Example 195, [(3R,3′R)-3′-hydroxy-1,4-dihydro-1′H,2H-spiro[isoquinoline-3,4′-piperidin]-1′-yl]([1,2,d]triazolo[1,5-a]pyrimidin-6-yl)methanone] | – | 15700 nM | – | ≥ 10000 nM
CN1CCn2cc(C(=O)N3CC[C@]4(Cc5ccccc5CN4)[C@H](O)C3)nc2C1 [Example 59, [(3R,3′R)-3′-hydroxy-1,4-dihydro-1′H,2H-spiro[isoquinoline-3,4′-piperidin]-1′-yl](7-methyl-5,6,7,8-tetrahydroimidazo[1,2-a]pyrazin-2-yl)methanone] | – | 20.2 nM | – | 6100 nM
CO[C@H](C)c1cc(N(C)CCn2ccnc2C)cn2cc(C(=O)N3CC[C@]4(Cc5ccccc5CN4)[C@H](O)C3)nc12 [Example 233, [(3R,3′R)-3′-hydroxy-1,4-dihydro-1′H,2H-spiro[isoquinoline-3,4′-piperidin]-1′-yl](8-[(1R)-1-methoxyethyl]-6-{methyl[2-(2-methyl-1H-imidazol-1-yl)ethyl]amino}imidazo[1,2-a]pyridin-2-yl)methanone] | – | 3.69 nM | – | 76.2 nM
